According to patent US12617760B2, “[(5-phenyl-1-heteroaryl-1H-triazol-3-yl)oxy] acetic acid derivatives as safeners for the protection of useful plants and crop plants” (BAYER AKTIENGESELLSCHAFT, priority 2020, dated 2026):

Tested on: summer barley (HORVS)
Test: Reduction of damage by mesosulfuron-methyl on summer barley (safener greenhouse test, post-emergence)
Assay type: in vivo, summer barley (HORVS; cv. Montoya)
Parameters: key: 0: no reduction in damage (appearance corresponding to the herbicide control); 1: slight reduction in damage; 2: distinct reduction in damage; 3: significant reduction in damage; 4: complete reduction in damage (appearance corresponding to the untreated control)
Details: safener dose 500 g/ha, sprayed at BBCH10-12, followed by mesosulfuron-methyl 40-60 g/ha, visual assessment 9-13 days after application, 2 repeats
Description: 2.1 Relative Action of Selected Compounds of the Invention Using the Example of Reduction of Damage by Mesosulfuron-Methyl on Summer Barley (HORVS) The seeds of the crop plants to be treated are laid out in sandy loam in plastic pots (diameter ˜4 cm), covered with soil and grown in a greenhouse under good conditions for germination and growth. The trial plants were treated at the early leaf stage (BBCH10-BBCH12). In the course of this, the inventive compounds of the general formula (I) formulated in the form of wettable powders (WP) were sprayed onto the above-ground parts of the plants as an aqueous suspension with a water application rate corresponding to 800 l/ha with addition of wetting agent (e.g. 0.2% Genapol-LRO or 0.2% Mero) in the specified dose. This was followed by the application of the herbicide. For this purpose, mesosulfuron-methyl, formulated in the form of water-dispersible granules (WG), was sprayed onto the above-ground parts of the plants in the form of an aqueous dispersion with a water application rate corresponding to 800 l/ha with addition of wetting agent (e.g. 0.2% Genapol-LRO or 1 l/ha Biopower) in a dose of 40-60 g/ha. […] 9-13 days after application, the efficacy of the test compounds was assessed visually. […]

COC(=O)COc1nc(-c2ccc(F)cc2F)n(-c2ccc(F)cn2)n1 [I.40-11, Methyl {[5-(2,4-difluorophenyl)-1-(5-fluoropyridin-2-yl)-1H-1,2,4-triazol-3-yl]oxy}acetate]
Efficacy of the safener (efficacy code): 2
